Measured values: ChEMBL document CHEMBL2203125, “A Potent and Selective Quinoxalinone-Based STK33 Inhibitor Does Not Show Synthetic Lethality in KRAS-Dependent Cells” (ACS Med Chem Lett, 2012)
≈ marks a conversion by molar mass, not a printed value. Values belong to the molecule of their own block, whether it stands above or below them. Calls of active or inactive are those of the source. The rule behind the calls is not given here.

Key:
[1] = Inhibition of His-tagged recombinant catalytic fragment of PKA assessed as phosphorylation of fluorescent-labeled peptide 21substrate by caliper capillary electrophoresis
[2] = molecular target: T1, Serine/threonine-protein kinase 33 (Homo sapiens, UniProt Q9BYT3); experiment: Inhibition of N-terminal 6His-tagged full length human recombinant STK33 using myelin basic protein as substrate incubated for 15 mins before initiation of kinase reaction measured after 1 hr by ADP-glo assay
Target sequence in this assay (Q9BYT3 whole entry): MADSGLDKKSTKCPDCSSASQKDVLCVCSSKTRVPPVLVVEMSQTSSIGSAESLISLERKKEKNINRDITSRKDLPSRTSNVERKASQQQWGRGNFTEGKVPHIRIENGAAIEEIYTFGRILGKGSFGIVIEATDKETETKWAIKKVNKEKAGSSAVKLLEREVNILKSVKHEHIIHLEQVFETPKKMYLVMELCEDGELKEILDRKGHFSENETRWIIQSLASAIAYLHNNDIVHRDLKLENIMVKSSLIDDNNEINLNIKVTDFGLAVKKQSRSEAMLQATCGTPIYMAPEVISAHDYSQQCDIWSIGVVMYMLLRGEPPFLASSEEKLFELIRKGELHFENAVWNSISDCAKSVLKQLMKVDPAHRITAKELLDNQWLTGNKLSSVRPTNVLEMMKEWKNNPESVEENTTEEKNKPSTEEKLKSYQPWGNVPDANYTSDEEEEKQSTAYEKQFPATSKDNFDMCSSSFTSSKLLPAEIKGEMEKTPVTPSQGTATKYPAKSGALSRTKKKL

[3] = Chemical stability of the compound in DMSO solution by LC-MS analysis; assay type: physicochemical
Homo sapiens [4] = species: Homo sapiens; experiment: Selectivity ratio of IC50 for human Aurora-B to IC50 for N-terminal 6His-tagged full length human recombinant STK33
Homo sapiens [5] = species: Homo sapiens; experiment: Selectivity ratio of IC50 for His-tagged recombinant catalytic fragment of PKA to IC50 for N-terminal 6His-tagged full length human recombinant STK33
Homo sapiens [6] = species: Homo sapiens; experiment: Selectivity ratio of IC50 for N-terminal 6His-tagged full length human recombinant STK33 to IC50 for human Aurora-B
Plasma [7] = experiment: Plasma protein binding in mouse at 5 uM after 5 hrs by equilibrium dialysis method; assay type: ADME, cell-free
[8] = molecular target: T1, Serine/threonine-protein kinase 33; conditions: 1 uM
Target sequence in this assay (Q9BYT3 whole entry, looked up): as the sequence (Q9BYT3 whole entry) above
Description: Inhibition of N-terminal 6His-tagged full length human recombinant STK33 using myelin basic protein as substrate at 1 uM incubated for 15 mins before initiation of kinase reaction measured after 1 hr by ADP-glo assay

NB-4 = experiment: Cytotoxicity against human NB4 cells expressing KRAS mutant gene assessed as effect on cell viability up to 10 uM after 72 hrs by CellTiter-Glo luminescent assay; assay type: functional, cell-based
[9] = molecular target: Vascular endothelial growth factor receptor 2 (Homo sapiens) (UniProt P35968); conditions: 1 uM
Description: Inhibition of human KDR at 1 uM

[10] = Metabolic stability in mouse plasma at 5 uM after 5 hrs by UPLC-MS analysis; assay type: ADME, cell-free; conditions: read-out: Stability
[11] = Metabolic stability in human plasma at 5 uM after 5 hrs by UPLC-MS analysis; assay type: ADME, cell-free; conditions: read-out: Stability
[12] = molecular target: Receptor-type tyrosine-protein kinase FLT3 (Homo sapiens) (UniProt P36888); conditions: 1 uM
Description: Inhibition of human FLT3 at 1 uM

[13] = Solubility of the compound in PBS at pH 7.4; assay type: physicochemical; conditions: buffer
KOPN-8 = experiment: Cytotoxicity against human KOPN8 cells expressing KRAS mutant gene assessed as effect on cell viability up to 10 uM after 72 hrs by CellTiter-Glo luminescent assay; assay type: functional, cell-based
MM1.S = experiment: Cytotoxicity against human MM1S cells expressing wild type KRAS assessed as effect on cell viability up to 10 uM after 72 hrs by CellTiter-Glo luminescent assay; assay type: functional, cell-based
MOLM16 = experiment: Cytotoxicity against human MOLM16 cells expressing wild type KRAS assessed as effect on cell viability up to 10 uM after 72 hrs by CellTiter-Glo luminescent assay; assay type: functional, cell-based
OCI-AML-3 = experiment: Cytotoxicity against human OCI-AML3 cells expressing wild type KRAS assessed as effect on cell viability up to 10 uM after 72 hrs by CellTiter-Glo luminescent assay; assay type: functional, cell-based
U-937 = experiment: Cytotoxicity against human U937 cells expressing wild type KRAS assessed as effect on cell viability up to 10 uM after 72 hrs by CellTiter-Glo luminescent assay; assay type: functional, cell-based
PL21 = experiment: Cytotoxicity against human PL21 cells expressing wild type KRAS assessed as effect on cell viability up to 10 uM after 72 hrs by CellTiter-Glo luminescent assay; assay type: functional, cell-based
GDM-1 = experiment: Cytotoxicity against human GDM-1 cells expressing wild type KRAS assessed as effect on cell viability up to 10 uM after 72 hrs by CellTiter-Glo luminescent assay; assay type: functional, cell-based
Homo sapiens [14] = species: Homo sapiens; experiment: Cytotoxicity against human KARPAS620 cells expressing KRAS mutant gene assessed as effect on cell viability up to 10 uM after 72 hrs by CellTiter-Glo luminescent assay; assay type: functional, cell-based
THP-1 = experiment: Cytotoxicity against human THP1 cells expressing wild type KRAS assessed as effect on cell viability up to 10 uM after 72 hrs by CellTiter-Glo luminescent assay; assay type: functional, cell-based
EOL1 = experiment: Cytotoxicity against human EOL-1 cells expressing wild type KRAS assessed as effect on cell viability up to 10 uM after 72 hrs by CellTiter-Glo luminescent assay; assay type: functional, cell-based
MDA-MB-231 = experiment: Cytotoxicity against human MDA-MB-231 cells expressing KRAS mutant gene assessed as effect on cell viability up to 10 uM after 72 hrs by CellTiter-Glo luminescent assay; assay type: functional, cell-based
Jurkat = experiment: Cytotoxicity against human Jurkat cells expressing wild type KRAS assessed as effect on cell viability up to 10 uM after 72 hrs by CellTiter-Glo luminescent assay; assay type: functional, cell-based
EJM = experiment: Cytotoxicity against human EJM cells expressing wild type KRAS assessed as effect on cell viability up to 10 uM after 72 hrs by CellTiter-Glo luminescent assay; assay type: functional, cell-based
NOMO-1 = experiment: Cytotoxicity against human NOMO1 cells expressing KRAS mutant gene assessed as effect on cell viability up to 10 uM after 72 hrs by CellTiter-Glo luminescent assay; assay type: functional, cell-based
RPMI-8226 = experiment: Cytotoxicity against human RPMI8226 cells expressing KRAS mutant gene assessed as effect on cell viability up to 10 uM after 72 hrs by CellTiter-Glo luminescent assay; assay type: functional, cell-based
SKM-1 = experiment: Cytotoxicity against human SKM1 cells expressing KRAS mutant gene assessed as effect on cell viability up to 10 uM after 72 hrs by CellTiter-Glo luminescent assay; assay type: functional, cell-based
Plasma [15] = experiment: Plasma protein binding in human at 5 uM after 5 hrs by equilibrium dialysis method; assay type: ADME, cell-free

Chain of Vascular endothelial growth factor receptor 2 (Homo sapiens) (P35968 whole entry): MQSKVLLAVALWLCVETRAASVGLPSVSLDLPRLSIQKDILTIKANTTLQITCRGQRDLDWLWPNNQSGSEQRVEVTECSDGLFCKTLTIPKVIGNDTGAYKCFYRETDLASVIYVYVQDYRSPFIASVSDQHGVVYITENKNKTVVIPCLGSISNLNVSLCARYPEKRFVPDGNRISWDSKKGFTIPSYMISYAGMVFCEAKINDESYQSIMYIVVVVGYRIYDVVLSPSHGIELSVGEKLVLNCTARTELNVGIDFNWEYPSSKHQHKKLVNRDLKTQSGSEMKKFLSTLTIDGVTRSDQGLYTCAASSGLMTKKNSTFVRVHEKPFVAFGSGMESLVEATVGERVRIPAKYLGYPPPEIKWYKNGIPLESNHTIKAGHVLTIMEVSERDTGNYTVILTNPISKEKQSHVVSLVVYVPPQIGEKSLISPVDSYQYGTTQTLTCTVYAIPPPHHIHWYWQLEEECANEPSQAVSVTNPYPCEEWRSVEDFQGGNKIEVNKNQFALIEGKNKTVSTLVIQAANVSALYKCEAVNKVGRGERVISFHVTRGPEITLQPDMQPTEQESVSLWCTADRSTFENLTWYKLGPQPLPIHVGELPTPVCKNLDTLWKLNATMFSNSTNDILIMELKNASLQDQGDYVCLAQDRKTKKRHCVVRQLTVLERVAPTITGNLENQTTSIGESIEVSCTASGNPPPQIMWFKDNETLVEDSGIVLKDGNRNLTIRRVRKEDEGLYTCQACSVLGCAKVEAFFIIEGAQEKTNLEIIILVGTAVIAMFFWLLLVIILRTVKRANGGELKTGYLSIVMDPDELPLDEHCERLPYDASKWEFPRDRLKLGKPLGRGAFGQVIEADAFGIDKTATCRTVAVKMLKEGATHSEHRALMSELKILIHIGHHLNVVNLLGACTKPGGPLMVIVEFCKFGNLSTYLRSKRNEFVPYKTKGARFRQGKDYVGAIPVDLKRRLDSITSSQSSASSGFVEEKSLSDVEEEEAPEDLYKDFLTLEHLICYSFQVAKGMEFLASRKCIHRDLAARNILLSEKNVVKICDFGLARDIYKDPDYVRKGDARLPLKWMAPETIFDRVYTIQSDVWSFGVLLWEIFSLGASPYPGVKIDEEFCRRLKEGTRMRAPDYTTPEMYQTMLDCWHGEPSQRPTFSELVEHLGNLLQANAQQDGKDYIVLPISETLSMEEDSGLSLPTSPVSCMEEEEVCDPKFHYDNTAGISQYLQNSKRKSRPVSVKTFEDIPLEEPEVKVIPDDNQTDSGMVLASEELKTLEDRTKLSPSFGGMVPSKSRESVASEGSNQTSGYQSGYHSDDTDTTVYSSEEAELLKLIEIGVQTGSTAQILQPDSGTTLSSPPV
Chain of Receptor-type tyrosine-protein kinase FLT3 (Homo sapiens) (P36888 whole entry): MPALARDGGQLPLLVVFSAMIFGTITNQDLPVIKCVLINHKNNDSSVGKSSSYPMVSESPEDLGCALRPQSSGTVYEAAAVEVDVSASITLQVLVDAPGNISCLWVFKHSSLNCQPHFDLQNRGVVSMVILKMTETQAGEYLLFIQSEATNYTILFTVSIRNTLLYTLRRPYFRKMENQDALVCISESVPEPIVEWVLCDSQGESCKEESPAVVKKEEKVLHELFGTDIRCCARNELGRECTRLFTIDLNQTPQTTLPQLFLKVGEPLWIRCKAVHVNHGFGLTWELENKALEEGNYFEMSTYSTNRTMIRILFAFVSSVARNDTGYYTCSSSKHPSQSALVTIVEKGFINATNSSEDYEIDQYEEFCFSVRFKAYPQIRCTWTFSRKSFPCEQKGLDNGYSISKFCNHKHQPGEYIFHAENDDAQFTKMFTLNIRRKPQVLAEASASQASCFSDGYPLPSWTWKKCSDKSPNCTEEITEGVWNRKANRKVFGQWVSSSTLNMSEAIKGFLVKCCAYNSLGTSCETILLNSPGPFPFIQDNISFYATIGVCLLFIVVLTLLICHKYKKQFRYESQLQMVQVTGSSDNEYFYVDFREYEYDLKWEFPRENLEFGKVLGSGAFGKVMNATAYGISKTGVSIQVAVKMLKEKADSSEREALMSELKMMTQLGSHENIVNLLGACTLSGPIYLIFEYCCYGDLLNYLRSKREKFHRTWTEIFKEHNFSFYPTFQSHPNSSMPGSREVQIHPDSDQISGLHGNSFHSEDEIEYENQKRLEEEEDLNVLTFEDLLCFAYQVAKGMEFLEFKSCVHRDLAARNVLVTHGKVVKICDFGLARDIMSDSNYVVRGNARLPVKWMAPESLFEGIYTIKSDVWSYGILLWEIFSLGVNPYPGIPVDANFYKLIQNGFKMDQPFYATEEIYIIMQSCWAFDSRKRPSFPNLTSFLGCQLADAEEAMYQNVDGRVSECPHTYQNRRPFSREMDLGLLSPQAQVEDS

SMILES: O=C(Nc1ccccc1-c1nc2ccccc2nc1O)c1cccs1
IC50 [1]: > 10 µM
IC50 [2]: 0.28 µM

SMILES: O=C(Nc1ccccc1-c1nc2ccccc2[nH]c1=O)c1cccnc1
IC50 [1]: > 10 µM
IC50 [2]: 0.58 µM
Stability [3]: Stable

SMILES: O=C(Nc1ccccc1-c1nc2cc(F)c(F)cc2[nH]c1=O)c1cccs1
IC50 [1]: > 10 µM
IC50 [2]: 1.6 µM

SMILES: O=c1[nH]c2ccccc2nc1-c1ccccc1NCc1ccccn1
IC50 [2]: 1.6 µM

IC50 [1]: > 10 µM
IC50 [2]: > 10 µM
SMILES: O=c1[nH]c2ccccc2nc1-c1ccccc1NCc1cccs1

SMILES: O=C(Nc1ccc(F)cc1-c1nc2ccccc2[nH]c1=O)c1cccs1
IC50 [1]: > 10 µM
IC50 [2]: 0.41 µM

SMILES: O=C(Nc1ccccc1-c1nc2ccccc2[nH]c1=O)c1ccc(Cl)s1
IC50 [2]: 0.38 µM

Ratio IC50 (Homo sapiens [4]): 5
Ratio IC50 (Homo sapiens [5]): 5
SMILES: CC(=O)NC[C@@H]1C[C@@H](NS(=O)(=O)c2cccc3cncc(C)c23)CN1

SMILES: O=C(Nc1ccc(Cl)cc1-c1nc2ccccc2[nH]c1=O)c1cccs1
IC50 [1]: > 10 µM
IC50 [2]: 0.16 µM

IC50 [1]: > 10 µM
IC50 [2]: > 10 µM
SMILES: O=c1[nH]c2ccccc2nc1-c1ccccc1NCc1ccccc1

SMILES: O=C(Nc1ccccc1-c1nc2ccccc2[nH]c1=O)c1ccccc1
IC50 [2]: 0.17 µM

SMILES: O=C(Nc1ccc(OC(F)(F)F)cc1-c1nc2ccccc2[nH]c1=O)c1cccs1
IC50 [1]: > 10 µM
IC50 [2]: 0.11 µM

Ratio IC50 (Homo sapiens [6]): 2
Ratio IC50 (Homo sapiens [4]): 0.4
SMILES: COc1ccc(-n2ncc3ccc(Nc4ccc(N5CCN(C)CC5)c(OC)c4)nc32)cc1

SMILES: O=C(Nc1ccccc1-c1nc2cc(Cl)c(Cl)cc2[nH]c1=O)c1cccs1
IC50 [1]: 4.8 µM
IC50 [2]: 4 µM
Ratio IC50 (Homo sapiens [5]): 1.1

IC50 [2]: > 10 µM
SMILES: O=c1[nH]c2ccccc2nc1-c1ccccc1NS(=O)(=O)c1cccs1

SMILES: CC(C)c1ccc(NC(=O)c2cccs2)c(-c2nc3ccccc3[nH]c2=O)c1
PPB (Plasma [7]): 99.9%
inhibition [8]: > 25%
IC50 [1]: > 10 µM
Activity (NB-4): inactive
inhibition [9]: > 25%
remaining at 5 h, 5 µM [10]: 10%
remaining at 5 h, 5 µM [11]: 80.3%
inhibition [12]: > 25%
IC50 [2]: 0.014 µM
solubility [13]: 5.8 µM (≈ 2.26 µg/mL)
Activity (KOPN-8): inactive
Activity (MM1.S): inactive
Activity (MOLM16): inactive
Activity (OCI-AML-3): inactive
Activity (U-937): inactive
Activity (PL21): inactive
Activity (GDM-1): inactive
Activity (Homo sapiens [14]): inactive
Activity (THP-1): inactive
Activity (EOL1): inactive
Activity (MDA-MB-231): inactive
Activity (Jurkat): inactive
Activity (EJM): inactive
Activity (NOMO-1): inactive
Activity (RPMI-8226): inactive
Activity (SKM-1): inactive
PPB (Plasma [15]): 99.6%

SMILES: O=C(Nc1ccccc1-c1nc2ccccc2[nH]c1=O)c1nccs1
IC50 [2]: 0.53 µM

SMILES: O=C(Nc1ccccc1-c1nc2ccccc2[nH]c1=O)c1ccc(Cl)cc1
IC50 [2]: 0.3 µM

SMILES: COc1ccc(C(=O)Nc2ccccc2-c2nc3ccccc3[nH]c2=O)cc1
IC50 [1]: > 10 µM
IC50 [2]: 0.98 µM

IC50 [2]: > 10 µM
SMILES: O=c1[nH]c2ccccc2nc1-c1ccccc1NCc1ccc(F)cc1

IC50 [2]: > 10 µM
SMILES: O=c1[nH]c2ccccc2nc1-c1ccccc1NCC1CC1

IC50 [1]: > 10 µM
IC50 [2]: > 10 µM
SMILES: O=C(Nc1ccccc1-c1nc2ccccc2[nH]c1=O)C1CCCCC1

SMILES: O=C(Nc1ccccc1-c1nc2ccccc2[nH]c1=O)c1ccc(F)cc1
IC50 [1]: > 10 µM
IC50 [2]: 0.15 µM
Stability [3]: Unstable

SMILES: O=C(Nc1cc(F)ccc1-c1nc2ccccc2[nH]c1=O)c1cccs1
IC50 [1]: > 10 µM
IC50 [2]: 0.078 µM

SMILES: O=C(Nc1cc(Cl)ccc1-c1nc2ccccc2[nH]c1=O)c1cccs1
IC50 [1]: > 10 µM
IC50 [2]: 0.27 µM

SMILES: O=c1[nH]c2ccccc2nc1-c1ccccc1NS(=O)(=O)c1ccccc1
IC50 [2]: 7.3 µM

SMILES: O=C(Nc1ccccc1-c1nc2ccccc2[nH]c1=O)c1ccccn1
IC50 [1]: > 10 µM
IC50 [2]: 0.076 µM
Stability [3]: Unstable

SMILES: COc1ccc(NC(=O)c2cccs2)c(-c2nc3ccccc3[nH]c2=O)c1
IC50 [1]: 7.5 µM
IC50 [2]: 0.25 µM
Ratio IC50 (Homo sapiens [5]): 30

SMILES: Cc1cc2nc(-c3ccccc3NC(=O)c3cccs3)c(=O)[nH]c2cc1C
IC50 [1]: > 10 µM
IC50 [2]: 1.6 µM
